# Key:
# [1] = system: gut microbiota; test: FLZ-to-M1 conversion in colonic contents with CYP51 inhibitors; format: in vitro ADME, mice; conditions: FLZ 2 μg/mL with CYP51 inhibitor 8 and 20 μg/mL, 6 h
# [2] = system: CYP51 in gut microbiota; test: CYP51 activity in colonic contents; format: biochemical, mice; conditions: inhibitor 8 and 20 μg/mL, 6 h, vs. Control
SMILES,Concentration of FLZ in the colonic contents [1],Concentration of M1 in the colonic contents [1],Ratio of M1/FLZ in gut microbiota [1],Activity of CYP51 in the reaction system of colonic contents [2]
CCC(C)n1ncn(-c2ccc(N3CCN(c4ccc(OCC5COC(Cn6cncn6)(c6ccc(Cl)cc6Cl)O5)cc4)CC3)cc2)c1=O (stereo not shown) [itraconazole],increased,decreased,reduced,inhibited
C[C@@H](c1ncncc1F)[C@](O)(Cn1cncn1)c1ccc(F)cc1F [voriconazole],increased,decreased,–,inhibited

# Source: article PMC8148066 (Acta Pharmaceutica Sinica. B, 2021)
